Measurements: patent US20120040998A1, “2-ALKYL PIPERIDINE MGLUR5 RECEPTOR MODULATORS” (priority 2009, published 2012)
pEC50: −log10 of the molar value. Where two headings read alike, the source gives them in different places.

Biological target: T1, human mGluR5A (Homo sapiens, UniProt P41594)
T1 construct: expressed in transfected cells
Assay: FLIPR Ca2+ mobilization assay, potentiation in the presence of 300 nM glutamate (EC20)
Format: cell-based
Text: The utility of the compounds in accordance with the present invention as positive allosteric modulators of metabotropic glutamate receptor activity, in particular mGluR5 activity, may be readily determined without undue experimentation by methodology well known in the art, including O'Brien et al., Molecular Pharmacology 2003, 64(3) 731-740. In particular, the compounds of the following examples had activity in reference assays by enhancing mGluR5 activity. […] Changes in intracellular Ca^2+ were measured with Fluo-4AM ester (Invitrogen/Molecular Probes), which was detected on a Fluorometric Imaging Plate Reader (FLIPR, Molecular Devices, Sunnyvale, Calif.). In a typical experiment the mGluR5 positive allosteric modulatory activity of the compounds of the present invention was determined in accordance with the following experimental method.
Cell Culture: Chinese Hamster Ovary (CHO) cells expressing human mGluR5A were maintained in growth medium containing DMEM, 10% dialyzed Fetal Bovine Serum, 50 units/mL Penicillin, 50 ug/mL Streptomycin, 2 mM L-glutamine, 1×MEM non-essential amino acids, 1 mM sodium pyruvate, 25 mM HEPES, 55 uM 2-mercaptoethanol, 5 ug/mL Puromycin, and 250 ug/mL Zeocin at 37° C. and 5% CO2. The day before the experiment, the cells were washed and seeded in “plating media” containing only DMEM, 10% dialyzed Fetal Bovine Serum, 50 units/mL Penicillin, and 50 ug/mL Streptomycin at a density of 50,000 cells/well (100 uL/well) in black 384-well clear-bottom PDL-coated plates. The cells were grown overnight at 37° C. and 6% CO2. This overnight glutamine/glutamate starvation allowed for consistent expression of the mGluR5A receptor, and the ability to add a known amount of agonist (glutamate in most cases) on the day of the experiment.
Fluorescent Ca^2+ mobilization (FLIPR) assay: The day of the experiment, the cells were washed with 37° C. Assay Buffer (Hanks Balanced Salt Solution with CaCl2 and MgCl2, 20 mM HEPES, 2.5 mM Probenecid, 0.1% BSA) with an automated plate washer (3×100 uL, aspiration 3 mm from bottom leaving ˜30 uL of buffer in each well). After washing, 30 uL of dye loading buffer (4 uM Fluo-4AM, 0.04% Pluronic acid, and 1% dialyzed FBS in assay buffer) were added to each well of the plates for 2 uM Fluo-4AM final concentration. The plates were incubated at 37° C. and 6% CO2 for 1 hour to allow for dye loading. After dye loading, the cells were washed again as above, and placed on the FLIPR. Assays were conducted with two possible scenarios: 1) To determine the potencies of the compounds, as either agonists of mGluR5 or potentiators of mGluR5 in the presence of a sub-threshold amount of glutamate, 10-point titrations of the compounds (1:3 dilution between each point, 30-0.0015 uM final concentrations) were added to the cells, followed by the addition of the EC20 of glutamate (300 nM) to the cells. 2) To determine the cooperativity of the compounds with the natural agonist (glutamate), single concentrations of the compounds were added to the cells, followed by the addition of a 10-point titration of glutamate (1:3 dilution between each point, 1000-0.05 uM final concentrations). […] For both scenarios above, operation of the FLIPR was the same. Baseline fluorescence was monitored for 10 seconds, followed by the addition of compounds diluted in Assay Buffer (1% DMSO concentration after this addition, 0.66% final DMSO concentration after agonist addition). After monitoring fluorescence for 5 minutes, during which time any intrinsic agonist activity of the compounds would have been detected, the agonist (glutamate) also diluted in assay buffer was then added to the cells. The response was then monitored for an additional 3 minutes. In scenario #1, the peak during the final 3 minutes was used for potentiator data, and the peak during the 5 minutes post compound addition was used for compound agonist data. […]

[1] = potentiation in presence of 300 nM glutamate, read-out: EC50 in potentiating/enhancing the mGluR5 receptor in the FLIPR assay
[2] = potentiation, CHO cells expressing human mGluR5A, in presence of 300 nM glutamate, inflection points, read-out: FLIPR EC50

T1 sequence (P41594 21-1180 isoform P41594-2 limits assumed): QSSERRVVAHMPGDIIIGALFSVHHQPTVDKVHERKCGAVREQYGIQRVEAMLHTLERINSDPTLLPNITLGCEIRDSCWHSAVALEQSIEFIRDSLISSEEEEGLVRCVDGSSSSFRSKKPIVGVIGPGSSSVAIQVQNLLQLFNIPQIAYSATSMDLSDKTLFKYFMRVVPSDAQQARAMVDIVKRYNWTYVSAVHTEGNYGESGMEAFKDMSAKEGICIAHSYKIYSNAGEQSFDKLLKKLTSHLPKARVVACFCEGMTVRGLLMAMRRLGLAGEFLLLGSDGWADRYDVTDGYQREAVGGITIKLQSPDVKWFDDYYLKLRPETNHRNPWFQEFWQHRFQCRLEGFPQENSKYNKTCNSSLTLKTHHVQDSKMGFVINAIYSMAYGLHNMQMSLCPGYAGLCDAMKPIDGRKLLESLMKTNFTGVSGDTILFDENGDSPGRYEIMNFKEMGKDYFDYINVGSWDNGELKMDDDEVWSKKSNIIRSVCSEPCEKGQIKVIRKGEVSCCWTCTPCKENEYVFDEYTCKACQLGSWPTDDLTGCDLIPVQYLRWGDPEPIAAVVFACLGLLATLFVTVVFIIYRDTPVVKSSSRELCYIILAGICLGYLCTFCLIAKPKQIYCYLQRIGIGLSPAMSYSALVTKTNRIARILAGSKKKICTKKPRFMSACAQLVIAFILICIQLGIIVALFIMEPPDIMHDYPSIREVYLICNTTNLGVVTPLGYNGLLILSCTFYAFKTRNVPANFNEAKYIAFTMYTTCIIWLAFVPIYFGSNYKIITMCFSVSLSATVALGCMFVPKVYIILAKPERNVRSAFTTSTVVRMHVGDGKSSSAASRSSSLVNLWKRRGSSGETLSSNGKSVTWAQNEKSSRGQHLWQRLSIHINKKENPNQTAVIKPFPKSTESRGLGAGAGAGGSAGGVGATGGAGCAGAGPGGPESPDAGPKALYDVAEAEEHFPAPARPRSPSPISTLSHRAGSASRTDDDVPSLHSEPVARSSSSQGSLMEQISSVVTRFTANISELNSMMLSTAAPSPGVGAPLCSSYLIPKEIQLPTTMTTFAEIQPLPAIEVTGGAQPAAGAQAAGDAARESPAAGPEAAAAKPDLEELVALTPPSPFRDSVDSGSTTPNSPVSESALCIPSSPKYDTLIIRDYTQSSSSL

Row | pEC50 [1] | pEC50 [2] | Structure (SMILES)
1 | > 6.00 | 7.60 | C[C@@H]1CC[C@H](c2noc(-c3cc(Cl)c[nH]3)n2)CN1C(=O)c1ccc(F)cc1 [Example 2-4, (2R,5S)-5-[5-(4-chloro-1H-pyrrol-2-yl)-1,2,4-oxadiazol-3-yl]-1-(4-fluorobenzoyl)-2-methylpiperidine]
2 | > 6.00 | 7.72 | C[C@@H]1CC[C@H](c2nc(-c3cc(Cl)c[nH]3)no2)CN1C(=O)c1ccc(F)cc1 [Example 5-5, (2R,5S)-5-[3-(4-Chloro-1H-pyrrol-2-yl)-1,2,4-oxadiazol-5-yl]-1-(4-fluorobenzoyl)-2-methylpiperidine]
3 | > 6.00 | 6.91 | C[C@@H]1CC[C@H](c2noc(-c3ccc(F)cc3)n2)CN1C(=O)c1ccc(F)cc1 [Example 1-16, (2R,5S)-1-(4-fluorobenzoyl)-5-[5-(4-fluorophenyl)-1,2,4-oxadiazol-3-yl]-2-methylpiperidine]
4 | > 6.00 | 6.68 | C[C@@H]1CC[C@H](c2noc(-c3ccc(F)cn3)n2)CN1C(=O)c1ccc(F)cc1 [Example 4-4, 5-Fluoro-2-{3-[(3S,6R)-1-(4-fluorobenzoyl)-6-methylpiperidin-3-yl]-1,2,4-oxadiazol-5-yl}pyridine]
5 | > 6.00 | 6.31 | C[C@H]1CC[C@@H](c2noc(-c3cc(Cl)c[nH]3)n2)CN1C(=O)c1ccc(F)cc1 [Example 2-3, (2S,5R)-5-[5-(4-chloro-1H-pyrrol-2-yl)-1,2,4-oxadiazol-3-yl]-1-(4-fluorobenzoyl)-2-methylpiperidine]

The remaining lines, values behind:

Row | Structure (SMILES) | pEC50 [1] | pEC50 [2]
6 | C[C@@H]1CC[C@H](c2nc(-c3cc(Cl)c[nH]3)no2)CN1C(=O)c1ccc(F)nc1 [Example 9-18, 5-({(2R,5S)-5-[3-(4-chloro-1H-pyrrol-2-yl)-1,2,4-oxadiazol-5-yl]-2-methylpiperidin-1-yl}carbonyl)-2-fluoropyridine] | > 6.00 | 7.04
7 | COc1cc(C(=O)N2C[C@@H](c3nc(-c4cc(Cl)c[nH]4)no3)CC[C@H]2C)ccn1 [Example 9-22, 4-({(2R,5S)-5-[3-(4-chloro-1H-pyrrol-2-yl)-1,2,4-oxadiazol-5-yl]-2-methylpiperidin-1-yl}carbonyl)-2-methoxypyridine] | > 6.00 | 7.26
8 | C[C@@H]1CC[C@H](c2noc(-c3cc(Cl)c[nH]3)n2)CN1C(=O)c1ccc(F)nc1 [Example 9-9, 5-({(2R,5S)-5-[5-(4-chloro-1H-pyrrol-2-yl)-1,2,4-oxadiazol-3-yl]-2-methylpiperidin-1-yl}carbonyl)-2-fluoropyridine] | > 6.00 | 6.84
